Results from publication PMC5291098, “Molecular mutagenesis of ppGpp: turning a RelA activator into an inhibitor” (Scientific Reports, 2017).
Read-outs that look alike come from different tables or passages of the source.

Molecular target: T1, E. coli RelA (Escherichia coli, UniProt P0AG20)
T1 construct: made in house
Assay: Inhibition of [3H]GDP to [3H]ppGpp conversion by E. coli RelA activated by vacant 70S ribosomes and 100 μM ppGpp
Assay type: biochemical
Conditions: for IC50: 30 nM RelA, 0.5 μM vacant 70S, 100 μM ppGpp; for nHill (Hill coefficient of the titration fit): Supplementary Table 1, 4-parameter logistic model; for Activation of RelA's synthetic activity (in words): ppGpp up to 100 μM, ppApp 50 µM-1 mM, thio-ppGpp 100 µM (Supplementary Figure 1); for Activity against RelA (in words) / Inhibitory effect on RelA (in words): RelA:70S:ppGpp system; for Inhibitory effect on RelA (in words): concentrations up to 1 mM
Description: For the initial characterization of compounds, we followed the inhibition of [^3H] GDP conversion to [^3H] ppGpp catalyzed by E. coli RelA in a simplified system in which RelA’s activity was induced by vacant 70S ribosomes and 100 μM of ppGpp[15]. Unlabeled ppGpp was added to reaction mixtures in order to linearize the kinetics of [^3H] ppGpp synthesis due to an activating effect on the RelA enzyme. We used a targeted library of 69 nucleotides belonging to several structural classes: ‘true’ ppGpp analogues; Relacin and its derivatives; pyrrolidine, azetidine, piperidine and acyclic phosphonates. Chemical structures of tested compounds and titrations in the RelA:70S:ppGpp system are presented in Supplementary Table 1.
Detailed description of experimental procedures can be found in Supplementary Text. Biochemical assays utilize in vitro translation[58] and stringent response[15] systems from E. coli purified components. Experiments were performed in HEPES:Polymix[58] buffer with either 5 (for enzymatically assembled initiation complexes) or 15 mM (for vacant 70 S, as well as non-enzymatically assembled programmed ribosomes) Mg^2+. Expression and purification of E. faecalis RelQ was performed as per Gaca (2015) and colleagues. GTPase and ppGpp synthesis were followed using TLC separation and radiochemical detection of ^3H-labelled nucleotides. Multiple round in vitro transcription assays were performed as per Bernardo et al.[49] with minor modifications. Inhibition efficiency (IC50) was calculated using 4-parameter logistic model (Hill equation) as per Sebaugh[60].
Thin layer chromatography (TLC) analysis of nucleotide mixtures
Both EF-G GTPase reaction and ppGpp synthesis by RelA were followed by TLC analysis followed by scintillation counting according to Mechold and colleagues, with modifications1. Time points from the reaction mixtures (5 μl, see below for details) were quenched by addition 4 μl 70% formic acid supplemented with a cold nucleotide standard used for UV-shadowing (10 mM GDP and 10 mM GTP) and spotted on PEI-TLC plates (Macherey-Nagel). TLC was run in buffer, plates dried, cut into sections guided by UV-shadowing and 3H radioactivity was quantified by scintillation counting in Optisafe-3 (Fisher) scintillation cocktail on Perkin Elmer Tricarb 2810TR counter. Conversion of substrate to product was quantified as described in Shyp et al. (2012)2.
Enzymatic assays with E. coli RelA
Screening: all experiments were performed in HEPES:Polymix, Mg2+ of 5 mM, 37 […]
μM ppGpp was pre-incubated at 37° C for 2 min and then reaction started by addition of 1 mM ATP, time points (5 μl) taken, quenched with formic acid and analyzed by TLC. Inhibition efficiency (IC50) was calculated using 4-parameter logistic model (Hill equation) as per Sebaugh (2011)3. […]

[1] = 0.3 mM [3H]GDP, 1 mM ATP, read-out: IC50
[2] = 5 mM Mg2+, 37 °C, no unit beside the value, titration axis in mM, read-out: IC50 (Supplementary Table 1, example titration)

T1 sequence (P0AG20 whole entry): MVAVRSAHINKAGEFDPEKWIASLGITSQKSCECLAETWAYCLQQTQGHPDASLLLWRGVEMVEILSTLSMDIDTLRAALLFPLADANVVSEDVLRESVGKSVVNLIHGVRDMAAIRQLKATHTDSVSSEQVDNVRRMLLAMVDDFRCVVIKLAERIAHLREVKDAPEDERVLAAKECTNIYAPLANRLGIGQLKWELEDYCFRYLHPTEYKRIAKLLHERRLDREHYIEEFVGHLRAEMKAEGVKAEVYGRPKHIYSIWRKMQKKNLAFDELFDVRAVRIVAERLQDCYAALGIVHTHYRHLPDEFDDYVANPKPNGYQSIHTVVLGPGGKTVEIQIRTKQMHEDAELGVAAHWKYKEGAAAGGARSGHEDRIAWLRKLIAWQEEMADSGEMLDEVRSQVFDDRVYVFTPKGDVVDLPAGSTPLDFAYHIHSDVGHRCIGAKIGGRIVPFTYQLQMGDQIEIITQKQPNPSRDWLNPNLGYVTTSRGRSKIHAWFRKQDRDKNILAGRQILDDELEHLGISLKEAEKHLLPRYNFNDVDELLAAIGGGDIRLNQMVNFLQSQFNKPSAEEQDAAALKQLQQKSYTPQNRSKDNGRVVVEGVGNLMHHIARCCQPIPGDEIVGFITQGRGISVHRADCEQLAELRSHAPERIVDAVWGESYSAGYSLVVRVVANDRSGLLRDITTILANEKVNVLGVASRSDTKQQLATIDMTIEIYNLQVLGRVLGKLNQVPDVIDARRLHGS

Nc1nc2c(ncn2C2OC(COP(=O)(O)OP(=O)(O)O)C(OP(=O)(O)OP(=O)(O)O)C2O)c(=S)[nH]1 (stereo not shown) [6-thio-ppGpp, reference compound]
IC50 [1]: 21.3 ± 2.1 µM | IC50 (5 mM Mg2+, 37 °C, no unit beside the value, titration axis in µM, read-out: IC50 (Supplementary Table 1, example titration)): 21.2 ± 2.08 µM | nHill (Hill coefficient of the titration fit): 1.86 ± 0.29 | Activation of RelA's synthetic activity (in words): neither ppApp nor 6-thio-ppGpp activate | Activation of RelA's synthetic activity (in words) (listed as thio-ppGpp): do not activate

CC(C)C(=O)Nc1nc2c(ncn2[C@@H]2O[C@H](COP(=O)(O)OCP(=O)(O)O)[C@@H](OP(=O)(O)OCP(=O)(O)O)[C@H]2OC2CCCCO2)c(=O)[nH]1 (stereo partly shown) [DR-4238, 2-N-isobutyryl-2’-tetrahydropyranylguanosine 3’,5’-di(phosphonomethoxyphosphate)]
IC50 [2]: 100 ± 6 µM | nHill (Hill coefficient of the titration fit): 1.85 ± 0.2

CC(C)C(=O)Nc1nc2c(ncn2C2OC(COP(=O)(O)OCP(=O)(O)O)C(OP(=O)(O)OCP(=O)(O)O)C2O)c(=O)[nH]1 (stereo not shown) [DR-4239, 2-N-isobutyryl-guanosine 3’,5’-di(phosphonomethoxyphosphate)]
IC50 [1]: 101 ± 8 µM | IC50 [2]: 102 ± 8 µM | nHill (Hill coefficient of the titration fit): 2.13 ± 0.3

CC(C)OP(=O)(O)CN1CC[C@H](n2cnc3c(=O)[nH]c(N)nc32)C1 [DR-4518]
IC50 [1]: 1710 ± 660 µM

Nc1nc2c(ncn2[C@H]2CCN(C(=O)P(=O)(O)O)C2)c(=O)[nH]1 [DR-4520]
IC50 [1]: 200 ± 22 µM | nHill (Hill coefficient of the titration fit): 1.46 ± 0.2

Nc1nc2c(ncn2CCNCC(=O)P(=O)(O)O)c(=O)[nH]1 [DR-5164]
IC50 [1]: 1400 ± 120 µM

Nc1nc2c(ncn2[C@@H]2CCN(C(=O)P(=O)(O)O)C2)c(=O)[nH]1 [DR-5267B]
IC50 [1]: 652 ± 194 µM | nHill (Hill coefficient of the titration fit): 0.95 ± 0.26

Nc1nc2c(ncn2C2CC(OC(=O)NCC(=O)NCC(=O)O)C(COC(=O)NCC(=O)NCC(=O)O)O2)c(=S)[nH]1 (stereo not shown) [DR-5732]
Activity against RelA (in words): virtually no activity | Activity against RelA (in words) (listed as thio-di-iBu-Relacin): complete inactivation

Nc1nc2c(ncn2C2CC(OCP(=O)(O)O)C(COCP(=O)(O)O)O2)c(=O)[nH]1 (stereo not shown) [DR-5799C]
IC50 [1]: 515 ± 392 µM | nHill (Hill coefficient of the titration fit): 2.2 ± 2.5

Nc1ncnc2c1ncn2C1CCN(C(=O)P(=O)(O)O)CC1 [DR-5994A]
IC50 [2]: 300 ± 30 µM | nHill (Hill coefficient of the titration fit): 1 ± 0.088

Nc1nc2c(ncn2C2OC(COCP(=O)(O)O)C(OCP(=O)(O)O)C2O)c(=O)[nH]1 (stereo not shown) [DR-6331]
IC50 [1]: 76 ± 6 µM | nHill (Hill coefficient of the titration fit): 1.5 ± 0.2

Nc1nc2c(ncn2C2CCN(C(=O)CP(=O)(O)O)CC2)c(=O)[nH]1 [DR-M011]
IC50 [1]: 234 ± 67 µM | IC50 [2]: 230 ± 70 µM | nHill (Hill coefficient of the titration fit): 0.62 ± 0.13

NC(=O)C1=CN([C@@H]2O[C@H](COP(=O)(O)OP(=O)(O)OC[C@H]3O[C@@H](n4cnc5c(N)ncnc54)[C@H](O)[C@@H]3O)[C@@H](O)[C@H]2O)C=CC1 [NADH, reference compound]
Inhibitory effect on RelA (in words): None of the compounds showed any inhibitory effect

NC(=O)C1=CN([C@@H]2O[C@H](COP(=O)(O)OP(=O)(O)OC[C@H]3O[C@@H](n4cnc5c(N)ncnc54)[C@H](OP(=O)(O)O)[C@@H]3O)[C@@H](O)[C@H]2O)C=CC1 [NADPH, reference compound]
Inhibitory effect on RelA (in words): None of the compounds showed any inhibitory effect

Nc1ncnc2c1ncn2[C@@H]1O[C@@H]2COP(=O)(O)O[C@H]3[C@@H](O)[C@H](n4cnc5c(N)ncnc54)O[C@@H]3COP(=O)(O)O[C@H]2[C@H]1O [c-di-AMP, reference compound]
Inhibitory effect on RelA (in words): None of the compounds showed any inhibitory effect

Nc1nc2c(ncn2[C@@H]2O[C@@H]3COP(=O)(O)O[C@H]4[C@@H](O)[C@H](n5cnc6c(N)ncnc65)O[C@@H]4COP(=O)(O)O[C@H]3[C@H]2O)c(=O)[nH]1 [c-di-GAMP, reference compound]
Inhibitory effect on RelA (in words): None of the compounds showed any inhibitory effect

Nc1nc2c(ncn2[C@@H]2O[C@@H]3COP(=O)(O)O[C@H]4[C@@H](O)[C@H](n5cnc6c(=O)[nH]c(N)nc65)O[C@@H]4COP(=O)(O)O[C@H]3[C@H]2O)c(=O)[nH]1 [c-di-GMP, reference compound]
Inhibitory effect on RelA (in words): None of the compounds showed any inhibitory effect

Nc1nc2c(ncn2C2CC(OC(=O)NCC(=O)NCC(=O)O)C(COC(=O)NCC(=O)NCC(=O)O)O2)c(=O)[nH]1 (stereo not shown) [di-iBu-Relacin]
Activity against RelA (in words): compromises its activity against RelA

Nc1nc2c(ncn2C2OC(COP(=O)(O)OP(=O)(O)O)C(OP(=O)(O)OP(=O)(O)O)C2O)c(=O)[nH]1 (stereo not shown) [ppGpp, guanosine tetraphosphate]
IC50 [1]: 720 ± 440 µM
